The numbers were not newly measured in patent US8137397B2, “Medical devices” (Boston Scientific Scimed, Inc., priority 2004, dated 2012), which cites them from elsewhere.

The conditions of the data set: at about room temperature, i.e., about 25° C.; for solubility: in water.

Regarding `[Cl-].[K+]` [Potassium chloride, potassium chloride], the solubility entry is “about 0.36 gram/mL of water”.
For `OC[C@@H](O)[C@@H](O)[C@H](O)[C@H](O)CO` [Mannitol, mannitol], the solubility entry is given as “about 0.18 gram/mL of water”.
For the compound `OC[C@H]1O[C@@](CO)(O[C@H]2O[C@H](CO)[C@@H](O)[C@H](O)[C@H]2O)[C@@H](O)[C@@H]1O` [Sucrose, sucrose], the solubility entry is listed as “about 2 gram/mL of water”.
Take `O=C(CO)[C@H](O)[C@@H](O)[C@H](O)CO` [Sorbose, sorbose]: the “solubility in water (in words)” value is listed as “freely soluble in water”.
